Assay [1] relates to STAT5a/5b. The assay is described as follows: STAT5a/5b phosphorylation in K562 cells (Western blot). It counts as cell-based, human. Conditions: Tyr694 (STAT5a)/Tyr699 (STAT5b), read-out: IC 50, STAT5a/5b‐phosphorylation. As for the experimental part:
(§1) Cells were […]
harvested by washing twice with ice -cold TBS, followed by resuspension in TBS supplemented with protease/phosphatase inhibitors (100 ng/ml aprotinin, 1 mM Na3VO4, 10 mM NaF, 1 mM […]
(§2) The components of cell lysates from treated cells, or heat-treated lysates from CETSA, were separated by SDS-PAGE (10%), transferred to nitrocellulose membrane (Bio-Rad) and detected using monoclonal rabbit primary antibodies (Cell Signaling), α-rabbit-HRP secondary antibody (Dako) and Western Lightning Plus chemiluminescence reagent (Perkin Elmer).
(§3) Bands were visualized using an ImageQuant system (GE Healthcare) and quantitated using ImageJ software (NIH). […]
(§4) The sitting drop was composed of 0.1 µl protein solution and 0.1 µl reservoir solution. Plates were stored at 19°C in a protein […]
(§5) In the first set of experiments, w e tried to crystallize STAT4 as a SUMO -STAT4 fusion protein […]
(§6) was cleaved off as described above.
Screening for crystallization conditions for tag-free STAT4 was performed both in the absence or presence of 1 equivalent of 6m or 6h. Since the chosen protein concentration of 3.6 mg/ml appeared to be too low, screening was repeated with a higher concentration of 6.4 mg/ml STAT4 for all conditions (corresponding to 100 µM 6m). Both the SUMO-STAT4 and the tag-free STAT4 preferentially precipitated under conditions containing polyethylene glycol. […]
Background: In western blotting, separated proteins are transferred to a membrane and probed.

The test system of assay [2] is IFN‐γ induction. The assay is described as follows: IL-12/IL-18-mediated IFN-γ induction in NK-92 cells. It counts as cell-based, human. The conditions noted are these: 4 h, 50 ng/ml IL-12 and 10 ng/ml IL-18. Here is the method: (§7) NK-92 cells (DSMZ) were cultured in α-MEM containing 12.5% fetal bovine serum (FBS), 12.5% horse serum, 2 mM L-glutamine, penicillin/streptomycin and 50 U/ml IL -2. […]
(§8) NK-92 cells were treated with test compound or DMSO in 1.5 ml medium in 12 -well plates (Corning) for 2 h (final DMSO concentration 0.2%), in the presence of 50 ng/ml IL -12 (PeproTech). For IFN-γ experiments (Figure 6 and S6), NK -92 cells or TALL-104 cells were treated for 4 h in the presence of 50 ng/ml IL-12 and 10 ng/ml IL-18 (Bio-Techne). […]
as §2, §3, §4, §5, §6
Screening for crystallization conditions for tag-free STAT4 was performed both in the absence or presence of 1 equivalent of 6m or 6h. […]

Assay [3] concerns IFN‐γ induction. The assay is described as follows: IFN-γ induction in TALL-104 cells. Conditions: 4 h, IL-12 or IL-12 and IL-18. It counts as cell-based, human. Here is the method:
(§9) NK-92 cells (DSMZ) were cultured in α-MEM containing 12.5% fetal bovine serum (FBS), 12.5% horse serum, 2 mM L-glutamine, penicillin/streptomycin and 50 U/ml IL -2. TALL-104 cells (ATCC, LGC Standards) were cultured in RPMI 1640 medium containing 20% FBS, 2 mM L - glutamine, penicillin/streptomy cin and 100 U/ml IL-2. […]
as §8, §2, §3, §4, §5
(§10) was cleaved off as described above. […]

Assay [4] concerns the target STAT3 (Homo sapiens, UniProt P40763). The assay is described as follows: STAT3 Tyr705 phosphorylation in HCC-827 cells (Western blot). It counts as cell-based. Further details: endogenous in cells. Conditions: serum-free conditions, read-out: IC 50, phosphorylation of STAT3 (Tyr705). As for the experimental part:
HCC-827 cells (DSMZ) and K562 cells
(DSMZ) were cultured in RPMI 1640 medium containing 10% FBS, 2 mM L -glutamine and penicillin/streptomycin. HCC -827 cells were subcultured by briefly rinsing with sterile PBS followed by incubation with 0.25% Trypsin-EDTA solution before inactivation by addition of cell culture medium (all reagents apart from cell lines were from Gibco at Thermo Fisher Scientific). […]
as §1
harvested by washing twice with ice -cold TBS, followed by resuspension in TBS supplemented with protease/phosphatase inhibitors (100 ng/ml aprotinin, 1 mM Na3VO4, 10 mM NaF, 1 mM PMSF). The adherent HCC-827 cells were mechanically separated from the culture surface using plastic cell scrapers (A. Hartenstein). […]
as §2, §3, §4

Assay [5] has as its target T1, STAT4 (Homo sapiens, UniProt Q14765).
T1 sequence (Q14765 1-748): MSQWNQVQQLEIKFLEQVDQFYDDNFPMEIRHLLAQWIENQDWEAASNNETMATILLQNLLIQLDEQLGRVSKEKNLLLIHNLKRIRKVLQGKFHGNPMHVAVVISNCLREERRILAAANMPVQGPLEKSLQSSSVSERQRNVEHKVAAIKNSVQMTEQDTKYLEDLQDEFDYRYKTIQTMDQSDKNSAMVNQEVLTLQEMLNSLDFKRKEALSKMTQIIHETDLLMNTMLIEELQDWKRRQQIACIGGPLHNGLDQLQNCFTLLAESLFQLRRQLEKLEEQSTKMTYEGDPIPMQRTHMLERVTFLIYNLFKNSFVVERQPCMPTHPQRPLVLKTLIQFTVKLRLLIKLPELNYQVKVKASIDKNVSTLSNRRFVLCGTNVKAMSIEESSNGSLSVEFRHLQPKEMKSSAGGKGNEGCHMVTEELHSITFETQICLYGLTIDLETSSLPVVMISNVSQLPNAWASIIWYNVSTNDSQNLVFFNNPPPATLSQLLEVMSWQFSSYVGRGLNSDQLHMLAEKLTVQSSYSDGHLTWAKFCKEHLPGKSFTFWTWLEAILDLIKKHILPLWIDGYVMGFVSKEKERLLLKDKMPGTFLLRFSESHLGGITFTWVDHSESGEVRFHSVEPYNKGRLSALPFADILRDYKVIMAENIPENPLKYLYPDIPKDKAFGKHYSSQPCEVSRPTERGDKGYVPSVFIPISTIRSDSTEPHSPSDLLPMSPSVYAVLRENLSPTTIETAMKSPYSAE
The assay is described as follows: IL-12-induced STAT4 Tyr693 phosphorylation in NK-92 cells (Western blot). In kind it is cell-based. Details: utilizing cellular lysates from the STAT4‐expressing natural killer cell line NK‐92; endogenous in cells; host or cells: NK-92 (DSMZ). Here is the method:
as §7, §2, §3, §4, §5, §6
Screening for crystallization conditions for tag-free STAT4 was performed both in the absence or presence of 1 equivalent of 6m or 6h. Since the chosen protein concentration of 3.6 mg/ml appeared to be too low, screening was repeated with a higher concentration of 6.4 mg/ml STAT4 for all conditions (corresponding to 100 µM 6m). Both the SUMO-STAT4 and the tag-free STAT4 preferentially precipitated under conditions containing polyethylene glycol. In one set of experiments, we also screened for conditions in the presence of the high-affinity peptide GY(PO3H2)LPQNID adapted from the IL-12 receptor. However, none of the conditions resulted in the growth of STAT4 crystals (Table S4).

Assay [6] deals with T1, STAT4. The assay is described as follows: STAT4 phosphorylation in TALL-104 cells stimulated by IL-12 or IL-12 and IL-18. In kind it is cell-based. Details: utilizing cellular lysates from the STAT4‐expressing natural killer cell line NK‐92; endogenous in cells; host or cells: NK-92 (DSMZ). The conditions noted are these: 4 h. Here is the method: as §9, §8, §2, §3, §4, §5, §10

The structures appear in SMILES notation. Entries after “also recorded” stand apart in the source; their conditions may differ. Read-outs that look alike come from different tables or passages of the source.

Chain of STAT3 (P40763 whole entry): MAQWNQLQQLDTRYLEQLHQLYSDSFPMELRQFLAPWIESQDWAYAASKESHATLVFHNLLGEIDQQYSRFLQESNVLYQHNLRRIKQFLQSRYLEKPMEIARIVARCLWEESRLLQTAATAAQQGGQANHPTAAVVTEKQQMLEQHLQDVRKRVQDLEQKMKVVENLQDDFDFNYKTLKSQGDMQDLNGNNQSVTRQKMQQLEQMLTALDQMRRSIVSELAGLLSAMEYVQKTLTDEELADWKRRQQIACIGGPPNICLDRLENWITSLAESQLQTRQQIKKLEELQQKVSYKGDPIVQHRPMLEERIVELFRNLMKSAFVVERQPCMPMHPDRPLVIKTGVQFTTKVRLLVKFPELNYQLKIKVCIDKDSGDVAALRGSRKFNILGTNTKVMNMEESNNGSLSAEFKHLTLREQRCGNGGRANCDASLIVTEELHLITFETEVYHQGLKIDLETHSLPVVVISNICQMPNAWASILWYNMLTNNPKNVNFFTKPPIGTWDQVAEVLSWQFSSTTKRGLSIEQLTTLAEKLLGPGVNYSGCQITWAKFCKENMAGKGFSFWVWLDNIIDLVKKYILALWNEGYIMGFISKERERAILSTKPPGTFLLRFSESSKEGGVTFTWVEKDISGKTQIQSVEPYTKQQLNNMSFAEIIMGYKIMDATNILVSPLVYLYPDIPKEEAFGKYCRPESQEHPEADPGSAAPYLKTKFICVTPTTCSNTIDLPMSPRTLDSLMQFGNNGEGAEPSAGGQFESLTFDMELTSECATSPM

Regarding `Cc1cc(-c2ccc(C(F)(F)P(=O)(OCOC(=O)C(C)(C)C)OCOC(=O)C(C)(C)C)c(F)c2)cs1` [Compound 9], the IC50 in assay [1] was above 25 µM; in assay [4], 19 µM; in assay [5] (2 h, presence of 25% serum, read-out: IC 50, IL‐12‐induced STAT4 phosphorylation), 77 µM; in assay [5] (IL-12, absence of serum, read-out: IC 50, STAT4 Tyr693 phosphorylation) it was 3.3 µM. Further, in assay [2], the “IL12/IL‐18‐mediated IFN‐γ induction” value is “strongly reduced; also recorded: inhibits”. Moreover, the “IFN‐γ induction” value in assay [3] is reported as “inhibited”. Further, the “inhibition of IL‐12‐induced STAT4 Tyr693 phosphorylation” value in assay [5] (2 h, presence of 25% serum) is given as “moderately inhibits”. In assay [5] (4 h, 50 ng/ml IL-12 and 10 ng/ml IL-18), the “IL‐12/IL‐18‐mediated STAT4 phosphorylation” value is reported as “strongly reduced; also recorded: inhibits”. For the same molecule, the “STAT4 phosphorylation stimulated by IL‐12 alone or co‐stimulated by IL‐12 and IL‐18” value in assay [6] is on record as “inhibited”.

For the origin of these results see publication PMC12087874, “Biaryl Phosphates and Phosphonates as Selective Inhibitors of the Transcription Factor STAT4” (Angewandte Chemie (International Ed. in English), 2025).
